Experimental data taken from ChEMBL document CHEMBL1201862, “PubChem BioAssay data set” (2004).
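Test compounds were applied to cells in 96-well plates for 48 hours at 5 doses. GI50: concentration for 50% inhibition of growth.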 Calls of active or inactive are those of the source. No stated cut-off is given here; in the data, active = GI50 up to about 1.1 µM and inactive = higher. Peptide text beside a SMILES is read from it. * marks the point of attachment. Cbz = O=C(OCc1ccccc1)*

Key:
Assay in all cases: growth of human tumour cells (NCI), 48 h
T47D = test system: T47D
U-251 = test system: U-251
UACC-257 = test system: UACC-257
OVCAR-4 = test system: OVCAR-4
NCI-H460 = test system: NCI-H460
TK-10 = test system: TK-10
RXF 393 = test system: RXF 393
Hs-578T = test system: Hs-578T
KM12 = test system: KM12
HCT-15 = test system: HCT-15
NCI-H522 = test system: NCI-H522
HOP-92 = test system: HOP-92
SK-MEL-5 = test system: SK-MEL-5
UO-31 = test system: UO-31
786-0 = test system: 786-0
SNB-75 = test system: SNB-75
NCI-H23 = test system: NCI-H23
SF-295 = test system: SF-295
M14 = test system: M14

SMILES | GI50 (T47D) | GI50 (U-251) | GI50 (UACC-257) | GI50 (OVCAR-4) | GI50 (NCI-H460) | GI50 (TK-10) | GI50 (RXF 393) | GI50 (Hs-578T) | GI50 (KM12) | GI50 (HCT-15) [µM] | GI50 (NCI-H522) | GI50 (HOP-92) | GI50 (SK-MEL-5) | GI50 (UO-31) | GI50 (786-0) | GI50 (SNB-75) | GI50 (NCI-H23) | GI50 (SF-295) | GI50 (M14)
O=C(O)c1ccccc1/C=N/N=C1NCCCCN1 | > 100 µM (inactive) | > 100 µM (inactive) | > 100 µM (inactive) | > 100 µM (inactive) | > 100 µM (inactive) | > 100 µM (inactive) | > 100 µM (inactive) | > 100 µM (inactive) | > 100 µM (inactive) | > 100 | 90.8 µM (inactive) | > 100 µM (inactive) | > 100 µM (inactive) | > 100 µM (inactive) | > 100 µM (inactive) | > 100 µM (inactive) | > 100 µM (inactive) | > 100 µM (inactive) | > 100 µM (inactive)
CN1N=C(c2ccccc2)C(C(c2ccccc2[N+](=O)[O-])C2C(=O)N(C)N=C2c2ccccc2)C1=O (configuration not stated) | > 100 µM (inactive) | > 100 µM (inactive) | > 71.4 µM (inactive) | > 100 µM (inactive) | > 100 µM (inactive) | > 100 µM (inactive) | 52 µM (inactive) | > 73.1 µM (inactive) | > 75 µM (inactive) | 42.6 | 99.8 µM (inactive) | > 80.9 µM (inactive) | > 100 µM (inactive) | > 100 µM (inactive) | > 70 µM (inactive) | > 87.1 µM (inactive) | > 100 µM (inactive) | > 100 µM (inactive) | > 100 µM (inactive)
O=C(O)CCC(NC(=O)OCc1ccccc1)C(=O)NC(Cc1c[nH]cn1)C(=O)O (stereo not drawn) (Cbz-Glu-His-OH; configuration not given here) | > 100 µM (inactive) | > 100 µM (inactive) | > 100 µM (inactive) | > 100 µM (inactive) | > 100 µM (inactive) | > 100 µM (inactive) | > 100 µM (inactive) | > 100 µM (inactive) | > 100 µM (inactive) | > 100 | > 100 µM (inactive) | > 100 µM (inactive) | > 100 µM (inactive) | > 100 µM (inactive) | > 100 µM (inactive) | > 100 µM (inactive) | > 100 µM (inactive) | > 100 µM (inactive) | > 100 µM (inactive)
CCCCCCCC(=O)N/N=C/c1ccc(Sc2nccn2C)c([N+](=O)[O-])c1 | 10.7 µM (inactive) | 16.2 µM (inactive) | 13.7 µM (inactive) | 13.2 µM (inactive) | 14.9 µM (inactive) | 26.6 µM (inactive) | 14.7 µM (inactive) | 18.5 µM (inactive) | 14.1 µM (inactive) | 14.5 | 12.2 µM (inactive) | 3.33 µM (inactive) | 12.9 µM (inactive) | 10.3 µM (inactive) | 14.9 µM (inactive) | 15.5 µM (inactive) | 18.2 µM (inactive) | 15.6 µM (inactive) | 13.2 µM (inactive)
COc1ccc(OC)c(Cc2cnc3nc(N)nc(N)c3c2C)c1 [PIRITREXIM ISETHIONATE] | 11.1 µM (inactive) |  | 13.9 µM (inactive) | 13.2 µM (inactive) | < 0.01 µM (active) | 13.5 µM (inactive) | 2.06 µM (inactive) | 15.1 µM (inactive) | 0.243 µM (active) | 0.0149 | 0.204 µM (active) | 0.752 µM (active) | 0.0955 µM (active) | 0.24 µM (active) | < 0.0497 µM (active) | 2.1 µM (inactive) | 0.0617 µM (active) | 0.0592 µM (active) | < 0.0201 µM (active)
COC(=O)N1C2C(C[C@@]1(C)C(=O)OC)c1ccccc1N2S(=O)(=O)c1ccccc1 (some centres not stated) | > 100 µM (inactive) |  | > 100 µM (inactive) | > 100 µM (inactive) | > 100 µM (inactive) | > 100 µM (inactive) | > 100 µM (inactive) | > 100 µM (inactive) | > 100 µM (inactive) |  | > 100 µM (inactive) | > 100 µM (inactive) | > 100 µM (inactive) | > 100 µM (inactive) | > 100 µM (inactive) | > 100 µM (inactive) | > 100 µM (inactive) | > 100 µM (inactive) | > 100 µM (inactive)
COc1ccc2oc(=N)c(C(N)=S)cc2c1 | 23.7 µM (inactive) | 29 µM (inactive) | 26.9 µM (inactive) | 31.9 µM (inactive) | 16.9 µM (inactive) | 26.1 µM (inactive) | 17 µM (inactive) | 23.2 µM (inactive) | 22.2 µM (inactive) | 17.5 | 17.5 µM (inactive) | 24 µM (inactive) | 13.6 µM (inactive) | 19.6 µM (inactive) | 23.9 µM (inactive) | 24.9 µM (inactive) |  | 37.1 µM (inactive) | 32.4 µM (inactive)
Clc1ccc(C2=NNC(c3cccc(Cl)c3)C2)cc1 (configuration not stated) | 44.6 µM (inactive) | 16.5 µM (inactive) | 32.3 µM (inactive) | 32.8 µM (inactive) | 28.5 µM (inactive) | 26.4 µM (inactive) | 31.3 µM (inactive) | 28.8 µM (inactive) | 35.9 µM (inactive) |  | 2.98 µM (inactive) | 10.8 µM (inactive) | 14.8 µM (inactive) | 1.9 µM (inactive) | 28.3 µM (inactive) | 26.8 µM (inactive) | 25.8 µM (inactive) | 29.1 µM (inactive) | 53.7 µM (inactive)
